Results reported in the NIST ThermoML archive (doi:10.1021/je0302304).

Assay: refractive index (Na D-line) (dimensionless); xn = mol fraction of the nth substance listed
Conditions: 101.32 kPa, Liquid, Standard Abbe refractometry

COCCOCCOCCOC [2,5,8,11-tetraoxadodecane] + CCO
refractive index
Conditions | 288.15 K | 298.15 K | 308.15 K | 318.15 K
x1 = 0.0045 | 1.3641 | 1.36 | 1.3559 | 1.3517
x1 = 0.0085 | 1.3648 | 1.3608 | 1.3567 | 1.3525
x1 = 0.0125 | 1.3656 | 1.3616 | 1.3575 | 1.3533
x1 = 0.0165 | 1.3664 | 1.3624 | 1.3583 | 1.3541
x1 = 0.0205 | 1.3672 | 1.3632 | 1.359 | 1.3548
x1 = 0.0305 | 1.3691 | 1.365 | 1.3609 | 1.3567
x1 = 0.05 | 1.3724 | 1.3684 | 1.3644 | 1.3602
x1 = 0.1 | 1.3799 | 1.376 | 1.372 | 1.3679
x1 = 0.15 | 1.3862 | 1.3823 | 1.3782 | 1.3741
x1 = 0.2 | 1.3915 | 1.3875 | 1.3834 | 1.3794
x1 = 0.25 | 1.396 | 1.3919 | 1.3879 | 1.3839
x1 = 0.3 | 1.3998 | 1.3958 | 1.3917 | 1.3877
x1 = 0.35 | 1.4032 | 1.3991 | 1.395 | 1.391
x1 = 0.4 | 1.4061 | 1.402 | 1.3979 | 1.3939
x1 = 0.4499 | 1.4087 | 1.4046 | 1.4005 | 1.3965
x1 = 0.5 | 1.411 | 1.4069 | 1.4028 | 1.3988
x1 = 0.55 | 1.4131 | 1.409 | 1.4049 | 1.4008
x1 = 0.6 | 1.4149 | 1.4108 | 1.4067 | 1.4026
x1 = 0.65 | 1.4166 | 1.4125 | 1.4084 | 1.4043
x1 = 0.7 | 1.4181 | 1.414 | 1.4099 | 1.4058
x1 = 0.75 | 1.4195 | 1.4154 | 1.4113 | 1.4072
x1 = 0.7999 | 1.4208 | 1.4167 | 1.4126 | 1.4084
x1 = 0.8499 | 1.422 | 1.4179 | 1.4137 | 1.4096
x1 = 0.8998 | 1.4231 | 1.4189 | 1.4148 | 1.4106
x1 = 0.9498 | 1.4241 | 1.4199 | 1.4158 | 1.4116
x1 = 1 | 1.425 | 1.4209 | 1.4167 | 1.4125

COCCOCCOC [2,5,8-trioxanonane] + CCO
refractive index
Conditions | 288.15 K | 298.15 K | 308.15 K | 318.15 K
x1 = 0.0045 | 1.3636 | 1.3596 | 1.3555 | 1.3514
x1 = 0.0085 | 1.3641 | 1.3601 | 1.356 | 1.3518
x1 = 0.0125 | 1.3645 | 1.3605 | 1.3565 | 1.3523
x1 = 0.0165 | 1.365 | 1.361 | 1.3569 | 1.3528
x1 = 0.0205 | 1.3655 | 1.3615 | 1.3574 | 1.3532
x1 = 0.0305 | 1.3666 | 1.3626 | 1.3585 | 1.3543
x1 = 0.05 | 1.3687 | 1.3647 | 1.3606 | 1.3564
x1 = 0.1 | 1.3737 | 1.3696 | 1.3654 | 1.3612
x1 = 0.15 | 1.378 | 1.3739 | 1.3697 | 1.3655
x1 = 0.2 | 1.3817 | 1.3776 | 1.3734 | 1.3692
x1 = 0.25 | 1.3851 | 1.381 | 1.3767 | 1.3725
x1 = 0.3 | 1.3881 | 1.3839 | 1.3797 | 1.3754
x1 = 0.35 | 1.3907 | 1.3866 | 1.3823 | 1.378
x1 = 0.4 | 1.3931 | 1.3889 | 1.3846 | 1.3803
x1 = 0.45 | 1.3953 | 1.3911 | 1.3867 | 1.3824
x1 = 0.4999 | 1.3973 | 1.3931 | 1.3887 | 1.3843
x1 = 0.55 | 1.399 | 1.3948 | 1.3904 | 1.3861
x1 = 0.5999 | 1.4007 | 1.3965 | 1.392 | 1.3877
x1 = 0.65 | 1.4022 | 1.398 | 1.3935 | 1.3892
x1 = 0.6999 | 1.4036 | 1.3993 | 1.3949 | 1.3905
x1 = 0.7499 | 1.4049 | 1.4006 | 1.3961 | 1.3917
x1 = 0.7999 | 1.406 | 1.4018 | 1.3973 | 1.3929
x1 = 0.8499 | 1.4072 | 1.4029 | 1.3984 | 1.394
x1 = 0.8998 | 1.4082 | 1.4039 | 1.3994 | 1.395
x1 = 0.9498 | 1.4092 | 1.4049 | 1.4003 | 1.3959
x1 = 1 | 1.4101 | 1.4058 | 1.4012 | 1.3968
